# Source: US20100029646A1, “PRODRUGS OF DIPHENYL OX-INDOL-2-ONE COMPOUNDS” (Topo Target A/S, priority 2006, published 2010)
row,melting point [°C],SMILES
1,174 to 175,"O=C(CCN1CCOCC1)Oc1ccc(C2(c3ccc(F)cc3)C(=O)Nc3c2ccc(F)c3F)cc1 (stereo not drawn) [Compound 1009, 4-[6,7-Difluoro-3-(4-fluorophenyl)-2-oxo-2,3-dihydro-1H-indol-3-yl]phenyl 3-morpholinopropanoate]"
2,223 to 225,"C=CC(=O)Oc1ccc(C2(c3ccc(F)cc3)C(=O)Nc3c2ccc(F)c3C)cc1 (stereo not drawn) [Compound 1016, 4-[6-Fluoro-3-(4-fluorophenyl)-7-methyl-2-oxo-2,3-dihydro-1H-indol-3-yl]phenyl acrylate]"
3,149 to 151,"CN1CCN(CCC(=O)Oc2ccc(C3(c4ccc(F)cc4)C(=O)Nc4c3ccc(F)c4F)cc2)CC1 (stereo not drawn) [Compound 1010, 4-[6,7-Difluoro-3-(4-fluorophenyl)-2-oxo-2,3-dihydro-1H-indol-3-yl]phenyl 3-(4-methylpiperazino)propanoate]"

# Continued, compound first:
row,SMILES,melting point [°C]
1,"COc1ccc(C2(c3ccc(OCOC(=O)OC(C)C)cc3)C(=O)N(COC(=O)OC(C)C)c3ccccc32)cc1 (stereo not drawn) [Compound 1011, [3-(4-{[(Isopropoxycarbonyl)oxy]methoxy}phenyl)-3-(4-methoxyphenyl)-2-oxo-2,3-dihydro-1H-indol-1-yl]methyl isopropyl carbonate]",63 to 65
2,O=C(Nc1ccccc1)Oc1ccc(C2(c3ccc(OC(=O)Nc4ccccc4)cc3)C(=O)Nc3c2ccc(F)c3F)cc1,163 to 165
3,"O=C1N(CCO)c2c(ccc(F)c2F)C1(c1ccc(O)cc1)c1ccc(F)cc1 (stereo not drawn) [Compound 1007, 6,7-Difluoro-3-(4-fluorophenyl)-1-(2-hydroxyethyl)-3-(4-hydroxyphenyl)-1,3-dihydro-2H-indol-2-one]",80 to 83
